The source of these data is patent US7375180B2, “Methods and compositions related to IRM compounds and Toll-like receptor 8” (3M Innovative Properties Company, priority 2003, dated 2008).

For the assay, the target named is T1, TLR8 (Homo sapiens, UniProt Q9NR97).
T1 sequence (Q9NR97 27-1041): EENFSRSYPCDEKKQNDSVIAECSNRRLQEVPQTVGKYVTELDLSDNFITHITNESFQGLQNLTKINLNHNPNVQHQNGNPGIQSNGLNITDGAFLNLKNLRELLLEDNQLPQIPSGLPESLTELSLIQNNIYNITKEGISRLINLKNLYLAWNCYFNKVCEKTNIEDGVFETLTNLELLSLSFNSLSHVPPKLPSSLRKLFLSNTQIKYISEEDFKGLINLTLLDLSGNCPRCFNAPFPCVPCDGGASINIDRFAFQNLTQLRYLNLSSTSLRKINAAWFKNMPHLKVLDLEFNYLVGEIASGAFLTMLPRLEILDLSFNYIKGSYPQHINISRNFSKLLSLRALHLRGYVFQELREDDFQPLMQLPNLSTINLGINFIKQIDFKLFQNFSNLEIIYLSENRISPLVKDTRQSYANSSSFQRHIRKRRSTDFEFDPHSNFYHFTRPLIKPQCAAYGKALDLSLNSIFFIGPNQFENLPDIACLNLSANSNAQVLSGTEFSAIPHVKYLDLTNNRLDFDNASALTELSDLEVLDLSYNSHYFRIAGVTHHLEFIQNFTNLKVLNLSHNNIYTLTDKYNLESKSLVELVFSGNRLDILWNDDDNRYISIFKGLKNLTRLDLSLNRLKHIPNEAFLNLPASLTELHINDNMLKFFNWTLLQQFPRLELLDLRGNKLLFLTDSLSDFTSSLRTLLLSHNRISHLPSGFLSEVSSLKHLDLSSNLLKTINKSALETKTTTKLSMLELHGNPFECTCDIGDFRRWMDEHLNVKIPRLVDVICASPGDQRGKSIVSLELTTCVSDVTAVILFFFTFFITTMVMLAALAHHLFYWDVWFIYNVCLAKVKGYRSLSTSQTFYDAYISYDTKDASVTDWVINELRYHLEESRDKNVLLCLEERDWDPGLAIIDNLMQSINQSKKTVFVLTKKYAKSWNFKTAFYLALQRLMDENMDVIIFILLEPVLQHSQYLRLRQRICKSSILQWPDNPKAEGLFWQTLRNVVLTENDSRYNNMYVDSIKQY
The experiment in a line: Dose dependent TLR8-mediated NF-κB-luciferase response in HEK293 cells transfected with TLR8 (Example 5). On the set-up: expressed in transfected cells; host or cells: HEK293 (ATCC CRL-1573), pIRES vector, G-418 selected, co-transfected with NFkB-luc reporter. It is filed as cell-based. How it is done:
Twenty-four hours before transfection, HEK293 cells were adhered to a 10 cm dish (Corning 430167, Corning Inc., Corning, N.Y.) at 37° C., 8% CO2. The cells were co-transfected with (1) pIRES (BD Biosciences Clontech, Palo Alto, Calif.) either (a) unmodified (HEK293-vector) or (b) containing human TLR8 (HEK293-TLR8), and (2) NFkB-luc reporter (Stratagene, La Jolla, Calif.) in a 10:1 ratio with Fugene 6 transfection reagent (Roche Diagnostics Corp., Indianapolis, Ind.) following the manufacturer's instructions. The plates were incubated for 24 hours following transfection and then selected in G-418 (400 μg/mL) for two weeks. The G-418-resistant cells containing either the TLR8 or empty vector were expanded in HEK293 media supplemented with G-418 for stimulation experiments.
The transfected cells were plated in white opaque 96 well plates (Costar 3917, Corning Inc., Corning, N.Y.) at a concentration of 5×10^4 cells per well in 100 μL of HEK293 media and incubated at 37° C., 8% CO2 for 4 hours. The cells were stimulated with 1 μL of IRM compounds at 1 mM in DMSO (final IRM concentration of 10 μM) or 1 μL DMSO as a control. The plates were then incubated an additional 16 hours at 37° C., 5% CO2. Luminescence was measured on an LMAX luminometer (Molecular Devices Corp., Sunnyvale, Calif.).
HEK293 cells were transfected as described in Example 1. HEK293 cultures were incubated with IRM compound or a negative control compound (1,5-dihydro-1-(2-methylpropyl)-4H-imidazo[4,5-c]quinolin-4-one, U.S. Pat. No. 4,698,348, Example 71) at concentrations of 0.1 μM, 0.3 μM, 1.0 μM, 3.0 μM, 10 μM, or 30 μM, or a vehicle control. Cultures were otherwise incubated as described in Example 1. Luciferase signals were read in RLU (Relative Luciferase Units) as described in Example 1.

On to `CCOCc1nc2c(N)nc3cc(-c4ccccc4)ccc3c2n1CC1CCNCC1` [IRM48, 2-ethoxymethyl-7-phenyl-1-(piperidin-4-ylmethyl)-1H-imidazo[4,5-c]quinolin-4-amine], for which the “Fold increase over vehicle” value (0.1 μM) is given as 0.9 fold; the “Fold increase over vehicle” value (0.3 μM) is 0.6 fold; the “Fold increase over vehicle” value (1.0 μM) was found to be 1.1 fold; the “Fold increase over vehicle” value (3.0 μM) is 1.2 fold; the “Fold increase over vehicle” value (10 μM) amounted to 8.2 fold; the “Fold increase over vehicle” value (30 μM) stood at 9.5 fold.

Turning to `CCCCc1nc2c(N)nc3ccccc3c2n1CCS(C)(=O)=O` [IRM45, 2-butyl-1-[2-(methylsulfonyl)ethyl]-1H-imidazo[4,5-c]quinolin-4-amine], the “Fold increase over vehicle” value reads like this: (0.1 μM) 1.5 fold; (0.3 μM) 2.5 fold; (1.0 μM) 6.7 fold; (3.0 μM) 12.1 fold; (10 μM) 17.0 fold; (30 μM) 24.3 fold.

On to `CCOCc1nc2c(N)nc3cc(-c4cccc(C(=O)N5CCCC5)c4)ccc3c2n1CC(C)(C)O` [IRM58, {3-[4-amino-2-ethoxymethyl-1-(2-hydroxy-2-methylpropyl)-1H-imidazo[4,5-c]quinolin-7-yl]phenyl}pyrrolidin-1-ylmethanone], for which the “Fold increase over vehicle” value (0.1 μM) is reported as 0.7 fold; the “Fold increase over vehicle” value (0.3 μM) worked out at 0.8 fold; the “Fold increase over vehicle” value (1.0 μM) turned out to be 0.9 fold; the “Fold increase over vehicle” value (3.0 μM) is 3.2 fold; the “Fold increase over vehicle” value (10 μM) is listed as 6.9 fold; the “Fold increase over vehicle” value (30 μM) stood at 7.8 fold.

Regarding `COCCc1nc2c(N)nc3ccccc3c2n1CCCCNC(=O)c1cnc2ccccc2n1` [IRM38, N-{4-[4-amino-2-(2-methoxyethyl)-1H-imidazo[4,5-c]quinolin-1-yl]butyl}quinoxaline-2-carboxamide], the “Fold increase over vehicle” value is given as 0.8 fold (0.1 μM); 0.8 fold (0.3 μM); 1.3 fold (1.0 μM); 3.8 fold (3.0 μM); 6.9 fold (10 μM); 7.8 fold (30 μM).

Consider `CCOCc1nc2c(N)nc3cc(-c4cncc(CO)c4)ccc3c2n1CC(C)(C)O` [IRM52, 1-{4-amino-2-(ethoxymethyl)-7-[5-(hydroxymethyl)pyridin-3-yl]-1H-imidazo[4,5-c]quinolin-1-yl}-2-methylpropan-2-ol], for which the “Fold increase over vehicle” value runs as follows: (0.1 μM) 1.2 fold; (0.3 μM) 2.1 fold; (1.0 μM) 4.1 fold; (3.0 μM) 5.8 fold; (10 μM) 7.8 fold; (30 μM) 9.3 fold.

As for `CCOCc1nc2c(N)nc3ccccc3c2n1CC(C)(C)NC(=O)NC1CCCC1` [IRM54, 1-[2-(4-amino-2-ethoxymethyl-1H-imidazo[4,5-c]quinolin-1-yl)-1,1-dimethylethyl]-3-cyclopentylurea], the “Fold increase over vehicle” value runs as follows: (0.1 μM) 0.9 fold; (0.3 μM) 0.9 fold; (1.0 μM) 1.2 fold; (3.0 μM) 2.6 fold; (10 μM) 5.9 fold; (30 μM) 9.2 fold.

As for `CCc1nc2c(N)nc3ccccc3c2n1CCS(C)(=O)=O` [IRM44, 2-ethyl-1-[2-(methylsulfonyl)ethyl]-1H-imidazo[4,5-c]quinolin-4-amine], the “Fold increase over vehicle” value reads like this: (0.1 μM) 0.9 fold; (0.3 μM) 1.1 fold; (1.0 μM) 1.0 fold; (3.0 μM) 0.9 fold; (10 μM) 2.5 fold; (30 μM) 12.5 fold.
